{"source": "patent US20220041627A1", "about": "“PRODRUGS OF ANTI-CANCER AND ANTI-AUTOIMMUNE DISEASES THERAPEUTIC AGENTS, AND METHODS OF MAKING AND USE THEREOF” (UNIVERSITY OF MARYLAND, BALTIMORE, priority 2018, published 2022)", "type_in_all_cases": "cell-based, human", "key": {"SK-MEL-5": {"tested_on": "SK-MEL-5", "experiment": "NCI-60 growth inhibition, SK-MEL-5", "description": "(§1) The anticancer effects of compounds 1a-1b against 60 human cancer cell lines (the Developmental Therapeutics Program of NCI) were studied. The cell lines were derived from different cancer types including leukemia, non-small-cell lung cancer, colon cancer, CNS cancer, melanoma, ovarian cancer, renal cancer, prostate cancer, and breast cancer (Table 1; the assay protocol can be found at: https://dtp.cancer.gov/default.htm). Compound 1a caused over 50% growth inhibition for most tested cell lines. […] Without wishing to be bound by any particular theory, it is believed that the differences in the anticancer effects between compounds 1a and 1b may be due to the more favorable cell membrane permeability of the boronic ester 1a."}, "SK-OV-3": {"tested_on": "SK-OV-3", "experiment": "NCI-60 growth inhibition, SK-OV-3", "description": "as §1"}, "SF-268": {"tested_on": "SF-268", "experiment": "NCI-60 growth inhibition, SF-268", "description": "as §1"}, "UO-31": {"tested_on": "UO-31", "experiment": "NCI-60 growth inhibition, UO-31", "description": "as §1"}, "MDA-MB-435": {"tested_on": "MDA-MB-435", "experiment": "NCI-60 growth inhibition, MDA-MB-435", "description": "as §1"}, "SF-295": {"tested_on": "SF-295", "experiment": "NCI-60 growth inhibition, SF-295", "description": "as §1"}, "PARP1": {"tested_on": "PARP1", "experiment": "Western blot of PARP1 in MCF7 cells", "settings": "48 h; for expression level of PARP1: compared to vehicle-treated cells; for level of cleavage of PARP1: compared to vehicle-treated controls", "description": "FIGS. 4A and 4B illustrate the effect of compounds 1a-1b in apoptosis. FIG. 4A: immunofluorescence of DNA cleavage protein γH2Ax was enhanced by using 5-FU and prodrugs 1a-1b. FIG. 4B: immunoblot analysis of MCF-7 cells treated with 5-FU, prodrugs 1a-1b for apoptosis markers PARP1 and Caspase 3. The cells were treated for 48 h with the indicated concentrations of compounds.\nWestern Blot Analysis. Treated cells were washed once with PBS and lysed with RIPA lysis buffer (Santa Cruz Biotechnology, SCBT, #24948) supplemented with sodium orthovanadate, PMSF, protease and phosphatase inhibitor cocktails (Sigma Aldrich). Cell lysates were centrifuge for 15 min at 14,000×g and the supernatant was used for immunoblotting. Protein concentration was normalized for the samples and resolved on a 10-13% SDS-PAGE gel. Following transfer to nitrocellulose membrane, specific mouse primary antibodies from SCBT (PARP1 #sc-8007, caspase 3 #sc-7272) and Cell Signaling (cleaved PARP1 #9541, cleaved caspase-3 #9664) were added and incubated overnight. Secondary antibodies corresponding to the host of the primary antibodies was further incubated with the membrane and washed three times to remove excess antibodies. Odyssey Fc Imaging System (LI-COR, Lincoln, Nebr.) was used to quantify the chemiluminescent of the proteins.\nTo understand the mechanism of action of prodrugs 1a-1b, the impact of the treatment of compounds 1a-1b on the γH2AX formation in MCF7 cells were determined using immunofluorescence assay (FIG. 4A). […] The effects of prodrugs 1a-1b on the PARP1 and caspase 3 cleavage in MCF7 cells were also determined using Western blots assays (FIG. 4B). […] Treatment of 5-FU and compounds 1a-1b increased the levels of cleavage of PARP1 and caspase 3 in MCF7 cells, as compared with that in the vehicle-treated controls. Therefore, prodrugs 1a-1b, similar to 5-FU, can induce MCF7 cell apoptosis, which might contribute to their pharmacological actions."}, "CCRF-CEM": {"tested_on": "CCRF-CEM", "experiment": "NCI-60 growth inhibition, CCRF-CEM", "settings": "Leukemia CCRF-CEM, 48 h", "description": "as §1"}, "UACC-257": {"tested_on": "UACC-257", "experiment": "NCI-60 growth inhibition, UACC-257", "description": "as §1"}, "MCF7": {"tested_on": "MCF7", "experiment": "NCI-60 growth inhibition, MCF7", "description": "as §1"}, "SR": {"tested_on": "SR", "experiment": "NCI-60 growth inhibition, SR", "settings": "Leukemia SR, 48 h", "description": "as §1"}, "SNB-75": {"tested_on": "SNB-75", "experiment": "NCI-60 growth inhibition, SNB-75", "description": "as §1"}, "KM12": {"tested_on": "KM12", "experiment": "NCI-60 growth inhibition, KM12", "description": "as §1"}, "HOP-62": {"tested_on": "HOP-62", "experiment": "NCI-60 growth inhibition, HOP-62", "description": "as §1"}, "DU-145": {"tested_on": "DU-145", "experiment": "NCI-60 growth inhibition, DU-145", "description": "as §1"}, "HS 578T": {"tested_on": "HS 578T", "experiment": "NCI-60 growth inhibition, HS 578T", "settings": "Breast Cancer HS 578T, 48 h", "description": "as §1"}, "A549/ATCC": {"tested_on": "A549/ATCC", "experiment": "NCI-60 growth inhibition, A549/ATCC", "settings": "Non-Small Cell lung Cancer A549/ATCC, 48 h", "description": "as §1"}, "HCC-2998": {"tested_on": "HCC-2998", "experiment": "NCI-60 growth inhibition, HCC-2998", "description": "as §1"}}}
{"smiles": "CC1(C)OB(c2ccc(Cn3cc(F)c(=O)[nH]c3=O)cc2)OC1(C)C", "note": "[Compound 1a, 5-Fluoro-1-(4-(4,4,5,5-tetramethyl-1,3,2-dioxaborolan-2-yl)benzyl)pyrimidine-2,4(1H,3H)-dione]", "values": [{"measurement": "inhibition at 50 µM", "setting": "SK-MEL-5; Homo sapiens, Melanoma SK-MEL-5, 48 h", "value": 61, "unit": "%"}, {"measurement": "inhibition at 50 µM", "setting": "SK-OV-3; Homo sapiens, Ovarian Cancer SK-OV-3, 48 h", "value": 31, "unit": "%"}, {"measurement": "inhibition at 50 µM", "setting": "SF-268; Homo sapiens, CNS Cancer SF-268, 48 h", "value": 31, "unit": "%"}, {"measurement": "inhibition at 50 µM", "setting": "UO-31; Homo sapiens, Renal Cancer UO-31, 48 h", "value": 27, "unit": "%"}, {"measurement": "inhibition at 50 µM", "setting": "MDA-MB-435; Homo sapiens, Melanoma MDA-MB-435, 48 h", "value": 96, "unit": "%"}, {"measurement": "inhibition at 50 µM", "setting": "SF-295; Homo sapiens, CNS Cancer SF-295, 48 h", "value": 14, "unit": "%"}, {"measurement": "expression level of PARP1", "setting": "PARP1", "value": "significantly reduced"}, {"measurement": "level of cleavage of PARP1", "setting": "PARP1", "value": "increased"}, {"measurement": "inhibition at 50 µM", "setting": "CCRF-CEM; Homo sapiens", "value": 62, "unit": "%"}, {"measurement": "inhibition at 50 µM", "setting": "UACC-257; Homo sapiens, Melanoma UACC-257, 48 h", "value": 33, "unit": "%"}, {"measurement": "inhibition at 50 µM", "setting": "MCF7; Homo sapiens, Breast Cancer MCF7, 48 h", "value": 81, "unit": "%"}, {"measurement": "inhibition at 50 µM", "setting": "SR; Homo sapiens", "value": 60, "unit": "%"}, {"measurement": "inhibition at 50 µM", "setting": "SNB-75; Homo sapiens, CNS Cancer SNB-75, 48 h", "value": 62, "unit": "%"}, {"measurement": "inhibition at 50 µM", "setting": "KM12; Homo sapiens, Colon Cancer KM12, 48 h", "value": 74, "unit": "%"}, {"measurement": "inhibition at 50 µM", "setting": "HOP-62; Homo sapiens, Non-Small Cell lung Cancer HOP-62, 48 h", "value": 36, "unit": "%"}, {"measurement": "inhibition at 50 µM", "setting": "DU-145; Homo sapiens, Prostate Cancer DU-145, 48 h", "value": 16, "unit": "%"}, {"measurement": "inhibition at 50 µM", "setting": "HS 578T; Homo sapiens", "value": 63, "unit": "%"}, {"measurement": "inhibition at 50 µM", "setting": "A549/ATCC; Homo sapiens", "value": 24, "unit": "%"}, {"measurement": "inhibition at 50 µM", "setting": "HCC-2998; Homo sapiens, Colon Cancer HCC-2998, 48 h", "value": 26, "unit": "%"}]}
{"smiles": "O=c1[nH]c(=O)n(Cc2ccc(B(O)O)cc2)cc1F", "note": "[Compound 1b, (4-((5-Fluoro-2,4-dioxo-3,4-dihydropyrimidin-I(2H)-yl)methyl)phenyl)boronic acid]", "values": [{"measurement": "Growth Inhibition (%)", "setting": "SK-MEL-5; Melanoma SK-MEL-5, 50 μM, 48 h", "value": 10, "unit": "%"}, {"measurement": "Growth Inhibition (%)", "setting": "SK-OV-3; Ovarian Cancer SK-OV-3, 50 μM, 48 h", "value": 13, "unit": "%"}, {"measurement": "Growth Inhibition (%)", "setting": "SF-268; CNS Cancer SF-268, 50 μM, 48 h", "value": 14, "unit": "%"}, {"measurement": "Growth Inhibition (%)", "setting": "UO-31; Renal Cancer UO-31, 50 μM, 48 h", "value": 27, "unit": "%"}, {"measurement": "Growth Inhibition (%)", "setting": "MDA-MB-435; Melanoma MDA-MB-435, 50 μM, 48 h", "value": 65, "unit": "%"}, {"measurement": "Growth Inhibition (%)", "setting": "SF-295; CNS Cancer SF-295, 50 μM, 48 h", "value": 5, "unit": "%"}, {"measurement": "expression level of PARP1", "setting": "PARP1", "value": "significantly reduced"}, {"measurement": "level of cleavage of PARP1", "setting": "PARP1", "value": "increased"}, {"measurement": "Growth Inhibition (%)", "setting": "CCRF-CEM; 50 μM", "value": 7, "unit": "%"}, {"measurement": "Growth Inhibition (%)", "setting": "UACC-257; Melanoma UACC-257, 50 μM, 48 h", "value": 14, "unit": "%"}, {"measurement": "Growth Inhibition (%)", "setting": "MCF7; Breast Cancer MCF7, 50 μM, 48 h", "value": 33, "unit": "%"}, {"measurement": "Growth Inhibition (%)", "setting": "SR; 50 μM", "value": 16, "unit": "%"}, {"measurement": "Growth Inhibition (%)", "setting": "SNB-75; CNS Cancer SNB-75, 50 μM, 48 h", "value": 15, "unit": "%"}, {"measurement": "Growth Inhibition (%)", "setting": "KM12; Colon Cancer KM12, 50 μM, 48 h", "value": 20, "unit": "%"}, {"measurement": "Growth Inhibition (%)", "setting": "HOP-62; Non-Small Cell lung Cancer HOP-62, 50 μM, 48 h", "value": 10, "unit": "%"}, {"measurement": "Growth Inhibition (%)", "setting": "DU-145; Prostate Cancer DU-145, 50 μM, 48 h", "value": "−6", "unit": "%"}, {"measurement": "Growth Inhibition (%)", "setting": "HS 578T; 50 μM", "value": 26, "unit": "%"}, {"measurement": "Growth Inhibition (%)", "setting": "A549/ATCC; 50 μM", "value": 4, "unit": "%"}, {"measurement": "Growth Inhibition (%)", "setting": "HCC-2998; Colon Cancer HCC-2998, 50 μM, 48 h", "value": 5, "unit": "%"}]}
